Test results taken from US20130225548A1, “Pyridine Derivative and Medicinal Agent” (NIPPON SHINYAKU CO., LTD., priority 2010, published 2013).
Counter-ions that a name gives are not always drawn.

Molecular target: T1, Syk tyrosine kinase (Homo sapiens, UniProt P43405)
T1 construct: purchased Carna Biosciences, Inc
Assay: Test for Syk tyrosine kinase inhibitory activity (ELISA)
Format: biochemical
Settings: Syk tyrosine kinase (Carna Biosciences), 25 μM ATP in substrate solution, 30° C. 1 hour, n=2; read-out: Evaluation (IC50, concentration inhibiting the tyrosine kinase activity at 50%)
Method: Test Example 1: Test for Syk Tyrosine Kinase Inhibitory Activity
1. Preparation of Test Substance
A test substance was prepared at 10 mM in dimethyl sulfoxide (DMSO), and further diluted with DMSO to concentrations of 1000, 300, 100, 30, 10, 3, 1, 0.3, 0.1, 0.03, and 0.01 μM. The resulting solutions were further diluted to 20-fold with an assay buffer, whereby test substance solutions were prepared. As a negative control, a solution obtained by diluting DMSO to 20-fold with an assay buffer was used. As the assay buffer, a buffer containing 15 mM Tris-HCl (pH 7.5), 0.01 (v/v) % Tween-20, and 1 mM dithiothreitol was used.
2. Measurement of Syk Tyrosine Kinase Inhibitory Activity
The activity was measured using the ELISA method. Each of the test substance solutions was added to a streptavidine-coated 96-well place (DELFIA Strip Plate 8×12 wells, PerkinElmer Co., Ltd,) at 10 μL per well (n=2), and a substrate solution (625 nM biotinylated peptide substrate, 25 μM ATP, 25 mM MgCl2, 15 mM Tris-HCl (pH 7.5), 0.01 (v/v) % Tween-20, 1 mM dithiothreitol) was added to the plate at 20 μL per well, and the resulting mixture was stirred. Finally, Syk tyrosine kinase (Carna Biosciences, Inc.) (previously diluted to 0.025 nM with the assay buffer) was added to the plate at 20 μL per well, and the resulting mixture was stirred. A reaction was allowed to proceed at 30° C. for 1 hour. After the plate was washed 4 times with a washing buffer (50 mM Tris-HCl (pH 7.5, 150 mM NaCl, 0.02 (v/v) % Tween-20), a blocking buffer (0.1% bovine serum albumin, 50 mM Tris-HCl (pH 7.5), 150 mM NaCl, 0.02 (v/v) % Tween-20) was added to the plate at 150 μL per well, and blocking was performed at 30° C. for 30 minutes. Then, the blocking buffer was removed, and a horseradish peroxidase-labeled anti-phosphorylated tyrosine antibody (BD Biosciences, Inc.) (previously diluted to 10000-fold with the blocking buffer) was added to the plate at 100 μL per well, and the plate was incubated at 30° C. for 30 minutes. After the plate was washed 4 times with the washing buffer, a 3,3′,5,5′-tetramethylbenzidine solution (Sigma-Aldrich Co., Ltd.) was added to the plate at 100 μL per well to develop the color for 10 minutes. The reaction was stopped by adding 0.1 M sulfuric acid at 100 μL per well. The absorbance at 450 nm was measured using a microplate reader (Multiskan F C, Thermo Fisher Scientific K,K.).
3. Analysis of Measurement Results
A non-linear regression analysis was performed for the measured absorbance using the SAS system (SAS institute. Inc.), and a concentration of each of the test substances: inhibiting the tyrosine kinase activity at 50% (IC50 ) was calculated. A case where IC50 is […] was evaluated as ***, a case where IC50 is 5 nM or more and less than 50 nM was evaluated as **, and a case where IC50 is 50 nM or more and less than 500 nM was evaluated as *, which are shown in the column of evaluation item.

Row | IC50 [nM] | SMILES
1 | 50 to 500 | N#Cc1ccnc(Nc2cc(C3CC3)cc(-c3cnc(N4CCC(O)CC4)nc3)n2)c1 [Example 35, 2-({4-cyclopropyl-6-[2-(4-hydroxypiperidin-1-yl)pyrimidin-5-yl]pyridin-2-yl}amino)pyridine-4-carbonitrile hydrochloride]
2 | 5 to 50 | Cn1ncc2cc(-c3cc(C4CC4)cc(Nc4cc(C#N)ccn4)n3)ccc21 [Example 36, 2-{[4-cyclopropyl-6-(1-methyl-1H-indazol-5-yl)pyridin-2-yl]amino}pyridine-4-carbonitrile hydrochloride]
3 | 5 to 50 | Cn1ncc2ccc(-c3cc(C4CC4)cc(Nc4cc(C#N)ccn4)n3)cc21 [Example 37, 2{[4-cyclopropyl-6-(1-methyl-1H-indazol-6-yl)pyridin-2-yl]amino}pyridine-4-carbonitrile hydrochloride]
4 | 5 to 50 | CN1CCCN(c2ccc(-c3cc(C4CC4)cc(Nc4cc(C#N)ccn4)n3)cn2)CC1 [Example 38, 2-{[4-cyclopropyl-6′-(4-methyl-1,4-diazepan-1-yl)-2,3′-bipyridin-6-yl]amino}pyridine-4-carbonitrile dihydrochloride]
5 | 50 to 500 | CNC(=O)C1CCCN1c1ccc(-c2cc(C3CC3)cc(Nc3cc(C#N)ccn3)n2)cn1 (centres unmarked) [Example 39, 1-{6-[(4-cyanopyridin-2-yl)amino]-4-cyclopropyl-2,3′-bipyridin-6′-yl}-N-methylpyrrolidine-2-carboxamide hydrochloride]
6 | 50 to 500 | N#Cc1ccnc(Nc2cc(C3CC3)cc(-c3ccc(N4CCC[C@H]4C(N)=O)nc3)n2)c1 [Example 40, (S)-1-{6-[(4-cyanopyridin-2-yl)amino]-4-cyclopropyl-2,3′-bipyridin-6′-yl}pyrrolidine-2-carboxamide hydrochloride]
7 | 50 to 500 | N#Cc1ccnc(Nc2cc(C3CC3)cc(-c3ccc(N4CCC(O)CC4)cc3)n2)c1 [Example 41, 2-({4-cyclopropyl-6-[4-(4-hydroxypiperidin-1-yl)phenyl]pyridin-2-yl}amino)pyridine-4-carbonitrile hydrochloride]
8 | 50 to 500 | CC(=O)N[C@H]1CCN(c2ccc(-c3cc(C4CC4)cc(Nc4cc(C#N)ccn4)n3)cn2)C1 [Example 42, N-[(3S)-1-{6-[(4-cyanopyridin-2-yl)amino]-4-cyclopropyl-2,3′-bipyridin-6′-yl}pyrrolidin-3-yl]acetamide hydrochloride]
9 | 50 to 500 | CCNC(=O)N1CCN(c2ccc(-c3cc(C4CC4)cc(Nc4cc(C#N)ccn4)n3)cn2)CC1 [Example 43, 4-{6-[(4-cyanopyridin-2-yl)amino]-4-cyclopropyl-2,3′-bipyridin-6′-yl}-N-ethylpiperazine-1-carboxamide hydrochloride]
10 | 50 to 500 | CC(C)NC(=O)N1CCN(c2ccc(-c3cc(C4CC4)cc(Nc4cc(C#N)ccn4)n3)cn2)CC1 [Example 44, 4-{6-[(4-cyanopyridin-2-yl)amino]-4-cyclopropyl-2,3′-bipyridin-6′-yl}-N-(propan-2-yl)piperazine-1-carboxamide hydrochloride]
11 | 50 to 500 | N#Cc1ccnc(Nc2cc(C3CC3)cc(-c3ccc(N4CC[C@@H](NC(N)=O)C4)nc3)n2)c1 [Example 45, 1-[(3R)-1-{6-[(4-cyanopyridin-2-yl)amino]-4-cyclopropyl-2,3′-bipyridin-6′-yl}pyrrolidin-3-yl]urea hydrochloride]
12 | 50 to 500 | N#Cc1ccnc(Nc2cc(C3CC3)cc(-c3ccc(N4CCN(C(N)=S)CC4)nc3)n2)c1 [Example 46, 4-{6-[(4-cyanopyridin-2-yl)amino]-4-cyclopropyl-2,3′-bipyridin-6′-yl}piperazine-1-carbothioamide hydrochloride]
13 | 50 to 500 | N#Cc1ccnc(Nc2cc(C3CC3)cc(-c3ccc(N4CCC[C@@H]4C(N)=O)nc3)n2)c1 [Example 47, (R)-1-{6-[(4-cyanopyridin-2-yl)amino]-4-cyclopropyl-2,3′-bipyridin-6′-yl}pyrrolidine-2-carboxamide hydrochloride]
14 | 50 to 500 | N#Cc1ccnc(Nc2cc(C3CC3)cc(-c3ccc(N4CCC[C@H]4CO)nc3)n2)c1 [Example 48, 2-{(4-cyclopropyl-6′-[(2S)-2-(hydroxymethyl)pyrrolidin-1-yl]-2,3′-bipyridin-6-yl}amino)pyridine-4-carbonitrile hydrochloride]
15 | 5 to 50 | N#Cc1ccnc(Nc2cc(C3CC3)cc(-c3ccc(N4CC[C@@H](N)C4)nc3)n2)c1 [Example 49, 2-({6′-[(3R)-3-aminopyrrolidin-1-yl]-4-cyclopropyl-2,3′-bipyridin-6-yl}amino)pyridine-4-carbonitrile dihydrochioride]
16 | 50 to 500 | CC(=O)N[C@@H]1CCN(c2ccc(-c3cc(C4CC4)cc(Nc4cc(C#N)ccn4)n3)cn2)C1 [Example 50, N-[(3R)-1-{6-[(4-cyanopyridin-2-yl)amino]-4-cyclopropyl-2,3′-bipyridin-6′-yl}pyrrolidin-3-yl]acetamide hydrochloride]
17 | 50 to 500 | N#Cc1ccnc(Nc2cc(C3CC3)cc(-c3ccc(N4CC[C@@H](F)C4)nc3)n2)c1 [Example 51, 2-({4-cyclopropyl-6′-[(3R)-3-fluoropyrrolidin-1-yl]-2,3′-bipyridin-6-yl}amino)pyridine-4-carbonitrile hydrochloride]
18 | 50 to 500 | CN(C)[C@@H]1CCN(c2ccc(-c3cc(C4CC4)cc(Nc4cc(C#N)ccn4)n3)cn2)C1 [Example 52, 2-({4-cyclopropyl-6′-[(3R)-3-(dimethylamino)pyrrolidin-1-yl]-2,3′-bipyridin-yl}amino)pyridine-4-carbonitrile hydrochloride]
19 | 50 to 500 | N#Cc1ccnc(Nc2cc(C3CC3)cc(-c3ccc(N4CCCC4=O)nc3)n2)c1 [Example 53, 2-{[4-cyclopropyl-6′-(2-oxopyrrolidin-1-yl)-2,3′-bipyridin-6-yl]amino}pyridine-4-carbonitrile hydrochloride]
20 | 50 to 500 | Cc1ccc(-c2cc(C3CC3)cc(Nc3cc(C#N)ccn3)n2)cn1 [Example 54, 2-[(4-cyclopropyl-6′-methyl-2,3′-bipyridin-6-yl)amino]pyridine-4-carbonitrile hydrochloride]
21 | 5 to 50 | N#Cc1ccnc(Nc2cc(C3CC3)cc(-c3ccc4cn[nH]c4c3)n2)c1 [Example 55, 2-{[4-cyclopropyl-6-(1H-indazol-6-yl)pyridin-2-yl]amino}pyridine-4-carbonitrile hydrochloride]
22 | 5 to 50 | N#Cc1ccnc(Nc2cc(C3CC3)cc(-c3ccc4[nH]ncc4c3)n2)c1 [Example 56, 2-{[4-cyclopropyl-6-(1H-indazol-5-yl)pyridin-2-yl]amino}pyridine-4-carbonitrile hydrochloride]
23 | 5 to 50 | N#Cc1ccnc(Nc2cc(C3CC3)cc(-c3ccc(N4CCN(C(N)=O)CC4)nc3)n2)c1 [Example 57, 4-{6-[(4-cyanopyridin-2-yl)amino]-4-cyclopropyl-2,3′-bipyridin-6′-yl}piperazine-1-carboxamide hydrochloride]
24 | 5 to 50 | CS(=O)(=O)N1CCN(c2ccc(-c3cc(C4CC4)cc(Nc4cc(C#N)ccn4)n3)cn2)CC1 [Example 58, 2-({4-cyclopropyl-6′-[4-(methanesulfonyl)piperazin-1-yl]-2,3′-bipyridin-6-yl}amino)pyridine-4-carbonitrile hydrochloride]
25 | 5 to 50 | CC(=O)N1CCN(c2ccc(-c3cc(C4CC4)cc(Nc4cc(C#N)ccn4)n3)cn2)CC1 [Example 59, 2-{[6′-(4-acetylpiperazin-1-yl)-4-cyclopropyl-2,3′-bipyridin-6-yl]amino}pyridine-4-carbonitrile hydrochloride]
26 | 5 to 50 | N#Cc1ccnc(Nc2cc(C3CC3)cc(-c3ccc(N4CCC(C(=O)O)CC4)nc3)n2)c1 [Example 60, 1-{6-[(4-cyanopyridin-2-yl)amino]-4-cyclopropyl-2,3′-bipyridin-6′-yl}piperidine-4-carboxylic acid hydrochloride]
